{
  "source": "patent US20230365546A1",
  "about": "“5-SUBSTITUTED INDOLE 3-AMIDE DERIVATIVES, PREPARATION METHOD AND USE THEREOF” (ORIGIANT PHARMACEUTICAL CO., LTD, priority 2020, published 2023)",
  "experiment_in_all_cases": "Kinase Profiler 10 μM panel",
  "key": {"PTK5(h)": {"target": "PTK5(h) (Homo sapiens (Human), UniProt P42685)", "experimental": "(§1) In vitro kinase assays were conducted using Kinase Profiler services provided by Eurofins. The experimental method was as follows: the small molecule compound to be tested (0.001-10 μM), the protein kinase to be tested were incubated with a buffer containing substrate, 10 mM magnesium acetate, and [γ-^33P-ATP], the reaction was started by adding Mg\\TPmix, after incubation for a period of time at room temperature, a 3% phosphate solution was added to the buffer to stop the reaction. Subsequently, 10 μL of the reaction mixture was quantitatively pipetted onto P30 filter paper, which was washed three times with 75 mM phosphate solution and then once with methanol. The P30 filter paper was air-dried and scintillation fluid was added for scintillation counting."}, "PKCμ(h)": {"target": "PKCμ(h) (Homo sapiens (Human), UniProt Q15139)", "experimental": "as §1"}, "Aurora-A(h)": {"target": "Aurora-A(h) (Homo sapiens (Human), UniProt O14965)", "sequence (O14965 whole entry)": "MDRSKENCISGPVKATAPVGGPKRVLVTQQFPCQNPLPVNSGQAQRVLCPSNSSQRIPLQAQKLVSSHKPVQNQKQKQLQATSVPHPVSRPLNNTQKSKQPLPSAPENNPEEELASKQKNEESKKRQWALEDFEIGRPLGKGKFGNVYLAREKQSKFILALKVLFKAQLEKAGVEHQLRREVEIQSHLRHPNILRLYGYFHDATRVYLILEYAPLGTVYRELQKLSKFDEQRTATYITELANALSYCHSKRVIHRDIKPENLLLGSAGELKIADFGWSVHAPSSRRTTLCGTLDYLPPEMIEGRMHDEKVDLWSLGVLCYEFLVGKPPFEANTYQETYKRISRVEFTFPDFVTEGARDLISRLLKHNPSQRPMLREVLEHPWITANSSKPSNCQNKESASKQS", "experimental": "as §1"}, "PRK1(h)": {"target": "PRK1(h) (Homo sapiens (Human), UniProt Q16512)", "sequence (Q16512 whole entry)": "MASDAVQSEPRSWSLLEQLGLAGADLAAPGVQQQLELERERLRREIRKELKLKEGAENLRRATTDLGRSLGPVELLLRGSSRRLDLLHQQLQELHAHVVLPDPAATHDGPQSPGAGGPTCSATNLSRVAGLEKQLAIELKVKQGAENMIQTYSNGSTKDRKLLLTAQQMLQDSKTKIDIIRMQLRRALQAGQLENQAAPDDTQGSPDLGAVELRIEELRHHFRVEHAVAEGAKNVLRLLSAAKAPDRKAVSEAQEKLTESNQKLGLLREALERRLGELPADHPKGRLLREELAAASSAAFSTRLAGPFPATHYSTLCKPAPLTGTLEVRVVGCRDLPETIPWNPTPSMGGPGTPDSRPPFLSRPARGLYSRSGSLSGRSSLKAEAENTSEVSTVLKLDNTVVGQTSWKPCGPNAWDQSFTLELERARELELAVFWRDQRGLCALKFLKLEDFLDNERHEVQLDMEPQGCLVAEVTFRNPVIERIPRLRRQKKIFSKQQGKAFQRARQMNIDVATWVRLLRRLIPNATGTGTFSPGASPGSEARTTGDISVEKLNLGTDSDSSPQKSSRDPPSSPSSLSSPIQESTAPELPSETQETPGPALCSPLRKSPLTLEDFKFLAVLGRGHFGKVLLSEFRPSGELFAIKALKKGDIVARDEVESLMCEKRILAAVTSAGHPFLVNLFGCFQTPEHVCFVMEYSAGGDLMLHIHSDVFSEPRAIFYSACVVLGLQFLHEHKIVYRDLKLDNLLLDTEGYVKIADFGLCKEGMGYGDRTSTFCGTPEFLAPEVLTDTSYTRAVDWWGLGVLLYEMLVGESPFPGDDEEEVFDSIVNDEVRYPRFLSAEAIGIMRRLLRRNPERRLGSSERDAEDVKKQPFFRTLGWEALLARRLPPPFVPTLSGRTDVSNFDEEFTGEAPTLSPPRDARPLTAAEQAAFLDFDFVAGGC", "experimental": "as §1"}, "VRK1(h)": {"target": "VRK1(h) (Homo sapiens (Human), UniProt Q99986)", "experimental": "as §1"}, "EGFR(L861Q)(h)": {"target": "EGFR(L861Q)(h) (Homo sapiens (Human), UniProt P00533, L861Q)", "sequence (P00533 25-1210 L861Q)": "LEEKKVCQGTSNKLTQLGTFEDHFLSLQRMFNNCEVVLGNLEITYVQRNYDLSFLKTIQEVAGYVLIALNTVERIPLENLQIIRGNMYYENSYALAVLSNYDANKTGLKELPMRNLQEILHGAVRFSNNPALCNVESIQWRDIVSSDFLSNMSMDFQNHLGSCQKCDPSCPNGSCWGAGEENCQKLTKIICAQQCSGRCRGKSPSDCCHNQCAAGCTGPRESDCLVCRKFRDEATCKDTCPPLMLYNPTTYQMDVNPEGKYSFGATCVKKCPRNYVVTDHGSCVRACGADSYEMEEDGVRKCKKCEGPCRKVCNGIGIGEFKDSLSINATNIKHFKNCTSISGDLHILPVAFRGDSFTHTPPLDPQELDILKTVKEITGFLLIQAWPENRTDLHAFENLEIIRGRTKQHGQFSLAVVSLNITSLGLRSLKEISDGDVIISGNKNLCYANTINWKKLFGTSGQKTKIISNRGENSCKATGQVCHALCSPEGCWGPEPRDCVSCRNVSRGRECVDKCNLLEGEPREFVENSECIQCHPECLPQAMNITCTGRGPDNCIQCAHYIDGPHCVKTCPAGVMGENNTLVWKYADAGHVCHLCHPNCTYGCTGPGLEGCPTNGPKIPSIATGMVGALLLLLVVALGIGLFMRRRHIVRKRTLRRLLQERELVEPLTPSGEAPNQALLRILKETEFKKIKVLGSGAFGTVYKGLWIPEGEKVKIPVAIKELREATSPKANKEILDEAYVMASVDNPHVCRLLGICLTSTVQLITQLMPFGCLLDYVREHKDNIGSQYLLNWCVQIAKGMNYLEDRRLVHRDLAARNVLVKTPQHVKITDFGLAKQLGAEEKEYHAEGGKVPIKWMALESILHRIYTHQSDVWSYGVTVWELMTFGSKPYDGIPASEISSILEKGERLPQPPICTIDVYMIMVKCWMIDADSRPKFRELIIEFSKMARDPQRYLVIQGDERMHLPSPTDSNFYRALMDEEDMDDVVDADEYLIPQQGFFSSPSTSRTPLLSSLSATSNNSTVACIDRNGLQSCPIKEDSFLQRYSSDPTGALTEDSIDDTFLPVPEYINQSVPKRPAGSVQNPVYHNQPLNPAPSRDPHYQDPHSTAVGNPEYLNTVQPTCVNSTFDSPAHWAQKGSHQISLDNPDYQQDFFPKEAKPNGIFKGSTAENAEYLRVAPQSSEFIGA", "experimental": "as §1"}, "PI3 Kinase (p120g)(h)": {"target": "PI3 Kinase (p120g)(h) (Homo sapiens (Human), UniProt P48736)", "experimental": "as §1"}, "CHK2(h)": {"target": "CHK2(h) (Homo sapiens (Human), UniProt O96017)", "experimental": "as §1"}, "Tie2(R849W)(h)": {"target": "Tie2(R849W)(h) (Homo sapiens (Human), UniProt Q02763, R849W)", "experimental": "as §1"}, "PKCθ(h)": {"target": "PKCθ(h) (Homo sapiens (Human), UniProt Q04759)", "experimental": "as §1"}, "PDGFRα(h)": {"target": "PDGFRα(h) (Homo sapiens (Human), UniProt P16234)", "experimental": "as §1"}, "ALK1(h)": {"target": "ALK1(h) (Homo sapiens (Human), UniProt P37023)", "experimental": "as §1"}, "Axl(h)": {"target": "Axl(h) (Homo sapiens (Human), UniProt P30530)", "experimental": "as §1"}, "MEK2(h)": {"target": "MEK2(h) (Homo sapiens (Human), UniProt P36507)", "experimental": "as §1"}, "MLCK(h)": {"test_system": "MLCK(h)", "experimental": "as §1"}, "EphA8(h)": {"target": "EphA8(h) (Homo sapiens (Human), UniProt P29322)", "sequence (P29322 28-1005)": "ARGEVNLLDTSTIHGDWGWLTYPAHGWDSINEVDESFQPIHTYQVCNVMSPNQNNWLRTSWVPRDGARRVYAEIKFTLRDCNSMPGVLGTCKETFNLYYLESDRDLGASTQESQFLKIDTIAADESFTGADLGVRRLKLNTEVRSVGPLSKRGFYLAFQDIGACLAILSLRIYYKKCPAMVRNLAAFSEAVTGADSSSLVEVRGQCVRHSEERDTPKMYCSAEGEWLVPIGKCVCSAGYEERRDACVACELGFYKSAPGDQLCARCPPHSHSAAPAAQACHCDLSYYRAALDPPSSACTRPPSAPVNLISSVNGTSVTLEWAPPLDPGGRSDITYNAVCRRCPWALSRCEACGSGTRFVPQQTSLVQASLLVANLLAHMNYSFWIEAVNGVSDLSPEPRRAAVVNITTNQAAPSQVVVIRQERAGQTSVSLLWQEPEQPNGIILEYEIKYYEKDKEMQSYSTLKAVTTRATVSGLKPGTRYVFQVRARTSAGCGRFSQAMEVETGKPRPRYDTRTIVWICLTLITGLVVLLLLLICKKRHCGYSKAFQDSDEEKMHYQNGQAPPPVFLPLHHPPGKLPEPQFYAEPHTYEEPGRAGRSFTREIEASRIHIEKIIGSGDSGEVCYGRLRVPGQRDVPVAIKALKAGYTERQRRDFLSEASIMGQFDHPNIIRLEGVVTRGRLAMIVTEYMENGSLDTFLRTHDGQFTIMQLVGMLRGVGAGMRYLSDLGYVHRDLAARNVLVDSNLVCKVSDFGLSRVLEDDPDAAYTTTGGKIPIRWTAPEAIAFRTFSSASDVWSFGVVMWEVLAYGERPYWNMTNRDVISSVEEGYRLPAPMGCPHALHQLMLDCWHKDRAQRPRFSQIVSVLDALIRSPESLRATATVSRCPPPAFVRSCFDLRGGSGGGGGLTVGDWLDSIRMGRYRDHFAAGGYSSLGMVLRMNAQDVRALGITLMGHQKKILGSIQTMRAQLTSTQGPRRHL", "experimental": "as §1"}, "TrkA(h)": {"target": "TrkA(h) (Homo sapiens (Human), UniProt P04629)", "experimental": "as §1"}, "mTOR(h)": {"target": "mTOR(h) (Homo sapiens (Human), UniProt P42345)", "experimental": "as §1"}, "CHK1(h)": {"target": "CHK1(h) (Homo sapiens (Human), UniProt O14757)", "experimental": "as §1"}, "NEK2(h)": {"target": "NEK2(h) (Homo sapiens (Human), UniProt P51955)", "experimental": "as §1"}, "PDHK2(h)": {"target": "PDHK2(h) (Homo sapiens (Human), UniProt Q15119)", "experimental": "as §1"}, "MRCKβ(h)": {"target": "MRCKβ(h) (Homo sapiens (Human), UniProt Q9Y5S2)", "experimental": "as §1"}, "PKBβ(h)": {"target": "PKBβ(h) (Homo sapiens (Human), UniProt P31751)", "sequence (P31751 whole entry)": "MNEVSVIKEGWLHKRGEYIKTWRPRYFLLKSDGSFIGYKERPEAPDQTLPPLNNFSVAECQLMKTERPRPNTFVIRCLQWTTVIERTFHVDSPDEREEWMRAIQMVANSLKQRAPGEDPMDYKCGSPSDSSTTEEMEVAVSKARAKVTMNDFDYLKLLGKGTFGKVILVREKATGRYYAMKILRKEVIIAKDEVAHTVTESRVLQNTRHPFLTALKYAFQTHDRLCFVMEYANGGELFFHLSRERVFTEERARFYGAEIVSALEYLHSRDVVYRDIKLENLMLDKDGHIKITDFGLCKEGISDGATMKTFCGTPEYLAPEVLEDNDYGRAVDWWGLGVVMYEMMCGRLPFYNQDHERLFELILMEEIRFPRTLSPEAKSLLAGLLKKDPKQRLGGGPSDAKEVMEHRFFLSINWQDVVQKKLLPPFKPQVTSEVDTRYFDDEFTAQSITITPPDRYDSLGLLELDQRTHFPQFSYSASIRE", "experimental": "as §1"}, "TNIK(h)": {"target": "TNIK(h) (Homo sapiens (Human), UniProt Q9UKE5)", "experimental": "as §1"}, "TLK2(h)": {"target": "TLK2(h) (Homo sapiens (Human), UniProt Q86UE8)", "sequence (Q86UE8 whole entry)": "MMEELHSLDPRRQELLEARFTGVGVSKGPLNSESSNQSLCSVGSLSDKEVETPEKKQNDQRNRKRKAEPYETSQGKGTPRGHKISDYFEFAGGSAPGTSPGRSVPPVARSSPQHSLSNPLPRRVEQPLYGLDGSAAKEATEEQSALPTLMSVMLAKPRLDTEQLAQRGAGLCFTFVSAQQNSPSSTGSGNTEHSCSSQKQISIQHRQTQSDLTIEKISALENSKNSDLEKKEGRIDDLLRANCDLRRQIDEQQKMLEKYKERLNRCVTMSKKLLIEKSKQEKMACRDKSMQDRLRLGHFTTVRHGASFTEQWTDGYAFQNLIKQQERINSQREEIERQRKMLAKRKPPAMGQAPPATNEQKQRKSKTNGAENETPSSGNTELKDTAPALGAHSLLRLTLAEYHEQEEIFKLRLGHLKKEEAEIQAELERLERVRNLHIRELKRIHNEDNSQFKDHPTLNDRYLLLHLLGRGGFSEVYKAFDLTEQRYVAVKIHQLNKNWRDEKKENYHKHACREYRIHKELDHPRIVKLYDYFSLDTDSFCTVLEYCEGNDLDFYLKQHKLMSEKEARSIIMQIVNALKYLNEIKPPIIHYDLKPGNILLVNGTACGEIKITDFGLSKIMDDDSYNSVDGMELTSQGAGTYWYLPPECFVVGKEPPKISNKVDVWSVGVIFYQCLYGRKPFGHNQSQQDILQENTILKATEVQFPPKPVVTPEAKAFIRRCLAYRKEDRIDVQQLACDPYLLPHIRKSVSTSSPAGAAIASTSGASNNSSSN", "experimental": "as §1"}, "Tie2 (h)": {"target": "Tie2 (h) (Homo sapiens (Human), UniProt Q02763)", "experimental": "as §1"}, "DMPK(h)": {"target": "DMPK(h) (Homo sapiens (Human), UniProt Q09013)", "experimental": "as §1"}, "PKCα(h)": {"target": "PKCα(h) (Homo sapiens (Human), UniProt P17252)", "experimental": "as §1"}, "PAK5(h)": {"target": "PAK5(h) (Homo sapiens (Human), UniProt Q9P286)", "experimental": "as §1"}, "Met(Y1248D)(h)": {"target": "Met(Y1248D)(h) (Homo sapiens (Human), UniProt P08581, Y1230D)", "experimental": "as §1"}, "CK2α2(h)": {"target": "CK2α2(h) (Homo sapiens (Human), UniProt P19784)", "experimental": "as §1"}, "FGFR4(h)": {"target": "FGFR4(h) (Homo sapiens (Human), UniProt P22455)", "experimental": "as §1"}, "MEK1(h)": {"target": "MEK1(h) (Homo sapiens (Human), UniProt Q02750)", "experimental": "as §1"}, "EphA2(h)": {"target": "EphA2(h) (Homo sapiens (Human), UniProt P29317)", "experimental": "as §1"}},
  "data": [
    {"smiles": "C[C@H](NC(=O)c1c[nH]c2ccc(-c3ccc4nc(NC(=O)C5CC5)sc4c3)cc12)c1cccc(F)c1", "note": "[Compound 34, (S)-5-(2-(cyclopropanecarboxamido)benzo[d]thiazol-6-yl)-N-(1-(3-fluorophenyl)ethyl)-1H-indole-3-carboxamide]", "values": [
      {"measurement": "Inhibition ratio", "setting": "PTK5(h)", "result": 51, "unit": "%"},
      {"measurement": "Inhibition ratio", "setting": "PKCμ(h)", "result": 6, "unit": "%"},
      {"measurement": "Inhibition ratio", "setting": "Aurora-A(h)", "result": 37, "unit": "%"},
      {"measurement": "Inhibition ratio", "setting": "PRK1(h)", "result": 26, "unit": "%"},
      {"measurement": "Inhibition ratio", "setting": "VRK1(h)", "result": 2, "unit": "%"},
      {"measurement": "Inhibition ratio", "setting": "EGFR(L861Q)(h)", "result": 49, "unit": "%"},
      {"measurement": "Inhibition ratio", "setting": "PI3 Kinase (p120g)(h)", "result": 35, "unit": "%"},
      {"measurement": "Inhibition ratio", "setting": "CHK2(h)", "result": 22, "unit": "%"},
      {"measurement": "Inhibition ratio", "setting": "Tie2(R849W)(h)", "result": 86, "unit": "%"},
      {"measurement": "Inhibition ratio", "setting": "PKCθ(h)", "result": "−24", "unit": "%"},
      {"measurement": "Inhibition ratio", "setting": "PDGFRα(h)", "result": 32, "unit": "%"},
      {"measurement": "Inhibition ratio", "setting": "ALK1(h)", "result": 50, "unit": "%"},
      {"measurement": "Inhibition ratio", "setting": "Axl(h)", "result": 86, "unit": "%"},
      {"measurement": "Inhibition ratio", "setting": "MEK2(h)", "result": 8, "unit": "%"},
      {"measurement": "Inhibition ratio", "setting": "MLCK(h)", "result": 14, "unit": "%"},
      {"measurement": "Inhibition ratio", "setting": "EphA8(h)", "result": 85, "unit": "%"},
      {"measurement": "Inhibition ratio", "setting": "TrkA(h)", "result": 102, "unit": "%"},
      {"measurement": "Inhibition ratio", "setting": "mTOR(h)", "result": "−7", "unit": "%"},
      {"measurement": "Inhibition ratio", "setting": "CHK1(h)", "result": 2, "unit": "%"},
      {"measurement": "Inhibition ratio", "setting": "NEK2(h)", "result": 21, "unit": "%"},
      {"measurement": "Inhibition ratio", "setting": "PDHK2(h)", "result": 3, "unit": "%"},
      {"measurement": "Inhibition ratio", "setting": "MRCKβ(h)", "result": "−5", "unit": "%"},
      {"measurement": "Inhibition ratio", "setting": "PKBβ(h)", "result": 12, "unit": "%"},
      {"measurement": "Inhibition ratio", "setting": "TNIK(h)", "result": 99, "unit": "%"},
      {"measurement": "Inhibition ratio", "setting": "TLK2(h)", "result": 5, "unit": "%"},
      {"measurement": "Inhibition ratio", "setting": "Tie2 (h)", "result": 96, "unit": "%"},
      {"measurement": "Inhibition ratio", "setting": "DMPK(h)", "result": 10, "unit": "%"},
      {"measurement": "Inhibition ratio", "setting": "PKCα(h)", "result": 6, "unit": "%"},
      {"measurement": "Inhibition ratio", "setting": "PAK5(h)", "result": "−2", "unit": "%"},
      {"measurement": "Inhibition ratio", "setting": "Met(Y1248D)(h)", "result": 99, "unit": "%"},
      {"measurement": "Inhibition ratio", "setting": "CK2α2(h)", "result": 23, "unit": "%"},
      {"measurement": "Inhibition ratio", "setting": "FGFR4(h)", "result": 5, "unit": "%"},
      {"measurement": "Inhibition ratio", "setting": "MEK1(h)", "result": 12, "unit": "%"},
      {"measurement": "Inhibition ratio", "setting": "EphA2(h)", "result": 38, "unit": "%"}
    ]},
    {"smiles": "C[C@H](NC(=O)c1cn(C)c2ccc(-c3ccn4nc(NC(=O)C5CC5)nc4c3)cc12)c1cccc(F)c1", "note": "[Compound 94, (S)-5-(2-(cyclopropanecarboxamido)-[1,2,4]triazolo[1,5-a]pyridin-7-yl)-N-(1-(3-fluorophenyl)ethyl)-1-methyl-1H-indole-3-carboxamide]", "values": [
      {"measurement": "Inhibition ratio/%", "setting": "PTK5(h)", "result": 48, "unit": "%"},
      {"measurement": "Inhibition ratio/%", "setting": "PKCμ(h)", "result": 50, "unit": "%"},
      {"measurement": "Inhibition ratio/%", "setting": "Aurora-A(h)", "result": "−7", "unit": "%"},
      {"measurement": "Inhibition ratio/%", "setting": "PRK1(h)", "result": "−12", "unit": "%"},
      {"measurement": "Inhibition ratio/%", "setting": "VRK1(h)", "result": 46, "unit": "%"},
      {"measurement": "Inhibition ratio/%", "setting": "EGFR(L861Q)(h)", "result": 75, "unit": "%"},
      {"measurement": "Inhibition ratio/%", "setting": "PI3 Kinase (p120g)(h)", "result": "−12", "unit": "%"},
      {"measurement": "Inhibition ratio/%", "setting": "CHK2(h)", "result": 8, "unit": "%"},
      {"measurement": "Inhibition ratio/%", "setting": "Tie2(R849W)(h)", "result": 16, "unit": "%"},
      {"measurement": "Inhibition ratio/%", "setting": "PKCθ(h)", "result": 7, "unit": "%"},
      {"measurement": "Inhibition ratio/%", "setting": "PDGFRα(h)", "result": 51, "unit": "%"},
      {"measurement": "Inhibition ratio/%", "setting": "ALK1(h)", "result": 0, "unit": "%"},
      {"measurement": "Inhibition ratio/%", "setting": "Axl(h)", "result": 31, "unit": "%"},
      {"measurement": "Inhibition ratio/%", "setting": "MEK2(h)", "result": 13, "unit": "%"},
      {"measurement": "Inhibition ratio/%", "setting": "MLCK(h)", "result": 14, "unit": "%"},
      {"measurement": "Inhibition ratio/%", "setting": "EphA8(h)", "result": 4, "unit": "%"},
      {"measurement": "Inhibition ratio/%", "setting": "TrkA(h)", "result": "−12", "unit": "%"},
      {"measurement": "Inhibition ratio/%", "setting": "mTOR(h)", "result": "−11", "unit": "%"},
      {"measurement": "Inhibition ratio/%", "setting": "CHK1(h)", "result": "−2", "unit": "%"},
      {"measurement": "Inhibition ratio/%", "setting": "NEK2(h)", "result": 24, "unit": "%"},
      {"measurement": "Inhibition ratio/%", "setting": "PDHK2(h)", "result": 32, "unit": "%"},
      {"measurement": "Inhibition ratio/%", "setting": "MRCKβ(h)", "result": "−4", "unit": "%"},
      {"measurement": "Inhibition ratio/%", "setting": "PKBβ(h)", "result": "−8", "unit": "%"},
      {"measurement": "Inhibition ratio/%", "setting": "TNIK(h)", "result": 59, "unit": "%"},
      {"measurement": "Inhibition ratio/%", "setting": "TLK2(h)", "result": 25, "unit": "%"},
      {"measurement": "Inhibition ratio/%", "setting": "Tie2 (h)", "result": 30, "unit": "%"},
      {"measurement": "Inhibition ratio/%", "setting": "DMPK(h)", "result": "−2", "unit": "%"},
      {"measurement": "Inhibition ratio/%", "setting": "PKCα(h)", "result": 16, "unit": "%"},
      {"measurement": "Inhibition ratio/%", "setting": "PAK5(h)", "result": 47, "unit": "%"},
      {"measurement": "Inhibition ratio/%", "setting": "Met(Y1248D)(h)", "result": 13, "unit": "%"},
      {"measurement": "Inhibition ratio/%", "setting": "CK2α2(h)", "result": 25, "unit": "%"},
      {"measurement": "Inhibition ratio/%", "setting": "FGFR4(h)", "result": 37, "unit": "%"},
      {"measurement": "Inhibition ratio/%", "setting": "MEK1(h)", "result": 43, "unit": "%"},
      {"measurement": "Inhibition ratio/%", "setting": "EphA2(h)", "result": 15, "unit": "%"}
    ]}
  ]
}
